Measurements as given in patent US20100298141A1, “SUBSTITUTED PYRIDINE N-OXIDE HERBICIDES” (E. I. DU PONT DE NEMOURS AND COMPANY, priority 2007, published 2010).

Key:
[1] = tested on: kochia; test: Test C pre-/postemergence test; format: in vivo, Kochia scoparia
How it was run: (§1)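 Compounds in a non-phytotoxic solvent with surfactant applied preemergence to seeded pots and, at the same time, postemergence to plants 2–18 cm tall (1- to 4-leaf stage). Paddy tests: pots flooded to 3 cm, compound applied into the water, depth held throughout.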

[2] = tested on: common ragweed; test: Test C pre-/postemergence test; format: in vivo, Ambrosia elation
How it was run: as §1

[3] = tested on: lambsquarters; test: Test C pre-/postemergence test; format: in vivo, Chenopodium album; settings: Postemergence; for Plant response rating, Lambsquarters: scale 0 to 100, 0 no effect, 100 complete control
Source text: (§2) Seeds of plant species selected from blackgrass (Alopecurus myosuroides), downy brome (Bromus tectorum), green foxtail (Setaria viridis), Italian ryegrass (Lolium multiflorum), wheat (Triticum aestivum), wild oat (Avena fatua), catchweed bedstraw (Galium aparine), Russian thistle (Salsola kali), […] (Cynodon dactylon), Surinam grass (Brachiaria decumbens), cocklebur (Xanthium strumarium), corn (Zea mays), crabgrass (Digitaria sanguinalis), woolly cupgrass (Eriochloa villosa), giant foxtail (Setaria faberii), Goosegrass (Eleusin indica), johnsongrass (Sorghum halepense), kochia (Kochia scoparia), lambsquarters (Chenopodium album), morningglory (Ipomoea coccinea), eastern black nightshade (Solanum ptycanthum), yellow nutsedge (Cyperus esculentus), pigweed (Amaranthus retroflexus), common ragweed (Ambrosia elation), soybean (Glycine max), common (oilseed) sunflower (Helianthus annuus), and velvetleaf (Abutilon theophrasti) were planted and treated preemergence with test chemicals formulated in a non-phytotoxic solvent mixture which included a surfactant. At the same time, plants selected from these crop and weed species and also winter barley (Hordeum vulgare), canarygrass (Phalaris minor), and chickweed (Stellaria media) were treated with postemergence applications of some of the test chemicals formulated in the same manner. Plants ranged in height from 2 to 18 cm (1- to 4-leaf stage) for postemergence treatments. […] At time of treatment, test pots were flooded to 3 cm above the soil surface, treated by application of test compounds directly to the paddy water, and then maintained at that water depth for the duration of the test. […] A dash (-) response means no test result.

[4] = tested on: green foxtail; test: Test C pre-/postemergence test; format: in vivo, Setaria viridis
How it was run: as §1

[5] = tested on: duck salad; test: Test C flooded paddy test; format: in vivo, Heteranthera limosa; settings: Flood
How it was run: (§3)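 Ratings were visual and made relative to untreated controls after 13 to 15 greenhouse days.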

[6] = tested on: Surinam grass; test: Test C pre-/postemergence test; format: in vivo, Brachiaria decumbens
How it was run: as §1

[7] = tested on: johnsongrass; test: Test C pre-/postemergence test; format: in vivo, Sorghum halepense
How it was run: as §1

[8] = tested on: redroot pigweed; test: Test A pre-/postemergence greenhouse test; format: in vivo, Amaranthus retroflexus; settings: for Plant response rating, Pigweed: 0 to 100 scale where 0 is no effect and 100 is complete control; for Pigweed plant response rating: 0 to 100 scale
How it was run: (§4)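 Visual injury ratings against untreated controls, taken roughly ten days after treatment in greenhouse. Plants were sprayed postemergence at one- to two-leaf stage (2–10 cm tall); at the same time, seeded loam/sand soil received a directed preemergence spray. Formulation: non-phytotoxic solvent mixture with surfactant.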

[9] = tested on: downy brome; test: Test C pre-/postemergence test; format: in vivo, Bromus tectorum
How it was run: as §1

[10] = tested on: barnyardgrass; test: Test A pre-/postemergence greenhouse test; format: in vivo, Echinochloa crus-galli; settings: for Plant response rating, Barnyardgrass: 0 to 100 scale where 0 is no effect and 100 is complete control; for Barnyardgrass plant response rating: 0 to 100 scale
How it was run: as §4

[11] = tested on: velvetleaf; test: Test A pre-/postemergence greenhouse test; format: in vivo, Abutilon theophrasti; settings: for Plant response rating, Velvetleaf: 0 to 100 scale where 0 is no effect and 100 is complete control; for Velvetleaf plant response rating: 0 to 100 scale
How it was run: as §4

[12] = tested on: crabgrass; test: Test C pre-/postemergence test; format: in vivo, Digitaria sanguinalis
How it was run: as §1

[13] = tested on: rice; test: Test C flooded paddy test; format: in vivo, Oryza sativa; settings: Flood
How it was run: as §3

[14] = tested on: giant foxtail; test: Test C pre-/postemergence test; format: in vivo, Setaria faberii; settings: for Foxtail, Giant plant response rating: preemergence, scale 0 (no effect) to 100 (complete control)
How it was run: as §1

[15] = tested on: velvetleaf; test: Test C pre-/postemergence test; format: in vivo, Abutilon theophrasti
How it was run: as §1

[16] = tested on: cocklebur; test: Test C pre-/postemergence test; format: in vivo, Xanthium strumarium; settings: for Plant response rating, Cocklebur: scale 0 to 100, 0 no effect, 100 complete control
Source text: as §2

[17] = tested on: wild oat; test: Test C pre-/postemergence test; format: in vivo, Avena fatua
How it was run: as §1

[18] = 62 g ai/ha, Preemergence, scale 0 to 100
[19] = 125 g ai/ha, preemergence, scale 0 (no effect) to 100 (complete control)
[20] = Postemergence, 62 g ai/ha, scale 0 to 100, 0 no effect, 100 complete control
[21] = Postemergence, 125 g ai/ha, scale 0 to 100, 0 no effect, 100 complete control
[22] = Postemergence, 250 g ai/ha, scale 0 to 100, 0 no effect, 100 complete control
[23] = Preemergence, 31 g ai/ha, scale 0 to 100 (0 no effect, 100 complete control)
[24] = preemergence, 250 g ai/ha, scale 0 (no effect) to 100 (complete control)
[25] = 62 g ai/ha, scale 0 to 100 (0 no effect, 100 complete control)
[26] = 250 g ai/ha, scale 0 to 100, 0 no effect, 100 complete control, 13 to 15 days
[27] = Postemergence, 500 g ai/ha, 0 is no effect, 100 is complete control
[28] = Preemergence, 125 g ai/ha, 0 no effect, 100 complete control

SMILES: CCn1nc(C(F)(F)F)c(C[S+]([O-])c2cccc[n+]2[O-])c1OCC(F)(F)F (racemic) [Compound 65]
- Kochia plant response rating [1, 18]: 100
- Kochia plant response rating [1, 19]: 100
- Plant response rating (0 to 100), Kochia ([1]; Postemergence, 31 g ai/ha): 0
- Plant response rating, Kochia [1, 20]: 0
- Plant response rating, Kochia [1, 21]: 0
- Plant response rating, Kochia [1, 22]: 0
- Plant response rating, Kochia [1, 23]: 100
- Kochia plant response rating [1, 24]: 100
- Ragweed plant response rating [2, 18]: 100
- Ragweed plant response rating [2, 19]: 100
- Plant response rating (0 to 100), Ragweed ([2]; Postemergence, 31 g ai/ha): 0
- Plant response rating (0 to 100), Ragweed ([2]; Postemergence, 62 g ai/ha): 0
- Plant response rating, Ragweed [2, 21]: 0
- Plant response rating, Ragweed [2, 22]: 0
- Plant response rating, Ragweed [2, 23]: 100
- Ragweed plant response rating [2, 24]: 100
- Plant response rating (0 to 100), Lambsquarters ([3]; 31 g ai/ha): 0
- Plant response rating, Lambsquarters ([3]; 62 g ai/ha): 0
- Plant response rating, Lambsquarters ([3]; 125 g ai/ha): 50
- Plant response rating, Lambsquarters ([3]; 250 g ai/ha): 50
- Foxtail, Green plant response rating [4, 18]: 100
- Foxtail, Green plant response rating [4, 19]: 100
- Plant response rating (0 to 100), Foxtail, Green ([4]; Postemergence, 31 g ai/ha): 5
- Plant response rating, Foxtail, Green [4, 20]: 50
- Plant response rating, Foxtail, Green [4, 21]: 80
- Plant response rating, Foxtail, Green [4, 22]: 90
- Plant response rating, Foxtail, Green [4, 23]: 90
- Foxtail, Green plant response rating [4, 24]: 100
- Plant response rating, Ducksalad [5, 25]: 30
- Plant response rating, Ducksalad [5, 26]: 100
- Surinam Grass plant response rating [6, 18]: 100
- Surinam Grass plant response rating [6, 19]: 100
- Plant response rating (0 to 100), Surinam Grass ([6]; Postemergence, 31 g ai/ha): 0
- Plant response rating (0 to 100), Surinam Grass ([6]; Postemergence, 62 g ai/ha): 0
- Plant response rating, Surinam Grass [6, 21]: 0
- Plant response rating, Surinam Grass [6, 22]: 25
- Plant response rating, Surinam Grass [6, 23]: 80
- Surinam Grass plant response rating [6, 24]: 100
- Johnsongrass plant response rating [7, 18]: 100
- Johnsongrass plant response rating [7, 19]: 100
- Plant response rating (0 to 100), Johnsongrass ([7]; Postemergence, 31 g ai/ha): 0
- Plant response rating, Johnsongrass [7, 20]: 0
- Plant response rating, Johnsongrass [7, 21]: 0
- Plant response rating, Johnsongrass [7, 22]: 0
- Plant response rating, Johnsongrass [7, 23]: 98
- Johnsongrass plant response rating [7, 24]: 100
- Plant response rating, Pigweed ([8]; Postemergence, 125 g ai/ha): 80
- Pigweed plant response rating [8, 27]: 90
- Pigweed plant response rating [8, 28]: 100
- Plant response rating, Pigweed ([8]; Preemergence, 500 g ai/ha): 100
- Bromegrass, Downy plant response rating [9, 18]: 100
- Bromegrass, Downy plant response rating [9, 19]: 100
- Plant response rating (0 to 100), Bromegrass, Downy ([9]; Postemergence, 31 g ai/ha): 0
- Plant response rating, Bromegrass, Downy [9, 20]: 10
- Plant response rating, Bromegrass, Downy [9, 21]: 30
- Plant response rating, Bromegrass, Downy [9, 22]: 75
- Plant response rating, Bromegrass, Downy [9, 23]: 65
- Bromegrass, Downy plant response rating [9, 24]: 100
- Plant response rating, Barnyardgrass ([10]; Postemergence, 125 g ai/ha): 90
- Barnyardgrass plant response rating [10, 27]: 90
- Barnyardgrass plant response rating [10, 28]: 80
- Plant response rating, Barnyardgrass ([10]; Preemergence, 500 g ai/ha): 100
- Plant response rating, Velvetleaf ([11]; Postemergence, 125 g ai/ha): 80
- Velvetleaf plant response rating [11, 27]: 90
- Velvetleaf plant response rating [11, 28]: 100
- Plant response rating, Velvetleaf ([11]; Preemergence, 500 g ai/ha): 100
- Crabgrass, Large plant response rating [12, 18]: 100
- Crabgrass, Large plant response rating [12, 19]: 100
- Plant response rating (0 to 100), Crabgrass, Large ([12]; Postemergence, 31 g ai/ha): 0
- Plant response rating, Crabgrass, Large [12, 20]: 0
- Plant response rating, Crabgrass, Large [12, 21]: 0
- Plant response rating, Crabgrass, Large [12, 22]: 60
- Plant response rating, Crabgrass, Large [12, 23]: 60
- Crabgrass, Large plant response rating [12, 24]: 100
- Plant response rating, Rice [13, 25]: 0
- Plant response rating, Rice [13, 26]: 45
- Foxtail, Giant plant response rating ([14]; 125 g ai/ha): 100
- Plant response rating (0 to 100), Foxtail, Giant ([14]; Postemergence, 31 g ai/ha): 0
- Plant response rating, Foxtail, Giant [14, 20]: 0
- Plant response rating, Foxtail, Giant [14, 21]: 40
- Plant response rating, Foxtail, Giant [14, 22]: 80
- Plant response rating, Foxtail, Giant [14, 23]: 98
- Foxtail, Giant plant response rating ([14]; 250 g ai/ha): 100
- Velvetleaf plant response rating [15, 18]: 60
- Velvetleaf plant response rating [15, 19]: 100
- Plant response rating (0 to 100), Velvetleaf ([15]; Postemergence, 31 g ai/ha): 0
- Plant response rating (0 to 100), Velvetleaf ([15]; Postemergence, 62 g ai/ha): 0
- Plant response rating, Velvetleaf [15, 21]: 30
- Plant response rating, Velvetleaf [15, 22]: 40
- Plant response rating, Velvetleaf [15, 23]: 55
- Velvetleaf plant response rating [15, 24]: 100
- Cocklebur plant response rating [16, 18]: 0
- Plant response rating (0 to 100), Cocklebur ([16]; Postemergence, 31 g ai/ha): 0
- Plant response rating, Cocklebur ([16]; Postemergence, 62 g ai/ha): 0
- Plant response rating, Cocklebur ([16]; Postemergence, 125 g ai/ha): 0
- Plant response rating, Cocklebur ([16]; Postemergence, 250 g ai/ha): 0
- Cocklebur plant response rating [16, 24]: 90
- Oat, Wild plant response rating [17, 18]: 98
- Oat, Wild plant response rating [17, 19]: 98
- Plant response rating (0 to 100), Oat, Wild ([17]; Postemergence, 31 g ai/ha): 0
- Plant response rating, Oat, Wild [17, 20]: 40
- Plant response rating, Oat, Wild [17, 21]: 80
- Plant response rating, Oat, Wild [17, 22]: 85
- Plant response rating, Oat, Wild [17, 23]: 85
- Oat, Wild plant response rating [17, 24]: 100
